Data on one compound can be found in patent US20070298106A1, “Sustained Release Formulation Containing Selective Serotonin Reuptake Inhibitor and Method for the Preparation Thereof” (Amorepacific Corporation, priority 2004, published 2007).

The solubility is the dissolved amount per volume that the medium holds. Low readings indicate a poorly soluble substance, high ones a readily soluble substance.

Structures are written as SMILES. Structures can show the parent of a compound that is named as a salt.

This series in a line: solubility of the drug. It counts as physicochemical.

In the case of `Fc1ccc([C@@H]2CCNC[C@H]2COc2ccc3c(c2)OCO3)cc1` [Paroxetine hydrochloride], the solubility stood at 5400 µg/mL.
